According to patent US20170189504A1, “NOVEL PEPTIDES AND COMBINATION OF PEPTIDES FOR USE IN IMMUNOTHERAPY AGAINST VARIOUS CANCERS” (immatics biotechnologies GmbH, priority 2015, published 2017):

Tested on: HLA-A*24
Assay: MHC binding assay, UV-ligand exchange with β2m ELISA, HLA-A*24 (Table 21)
Design: species or system human
Details: binding to HLA-A*24 ranged by peptide exchange yield (UV-ligand exchange, β2m ELISA)
Text: Candidate peptides for T cell based therapies according to the present invention were further tested for their MHC binding capacity (affinity). The individual peptide-MHC complexes were produced by UV-ligand exchange, where a UV-sensitive peptide is cleaved upon UV-irradiation, and exchanged with the peptide of interest as analyzed. Only peptide candidates that can effectively bind and stabilize the peptide-receptive MHC molecules prevent dissociation of the MHC complexes. To determine the yield of the exchange reaction, an ELISA was performed based on the detection of the light chain ((β2m) of stabilized MHC complexes. The assay was performed as generally described in Rodenko et al. (Rodenko et al., 2006).
96 well MAXISorp plates (NUNC) were coated over night with 2 ug/ml streptavidin in PBS at room temperature, washed 4× and blocked for 1 h at 37° C. in 2% BSA containing blocking buffer. Refolded HLA-A*02:01/MLA-001 monomers served as standards, covering the range of 15-500 ng/ml. Peptide-MHC monomers of the UV-exchange reaction were diluted 100 fold in blocking buffer. Samples were incubated for 1 h at 37° C., washed four times, incubated with 2 ug/ml HRP conjugated anti-β2m for 1 h at 37° C., washed again and detected with TMB solution that is stopped with […]. Absorption was measured at 450 nm. Candidate peptides that show a high exchange yield (preferably higher than 50%, most preferred higher than 75%) are generally preferred for a generation and production of antibodies or fragments thereof, and/or T cell receptors or fragments thereof, as they show sufficient avidity to the MHC molecules and prevent dissociation of the MHC complexes.

Row | Substance | Peptide exchange
1 | 274 (AYLHSHALI; listed as Homo sapiens) [compound 274] | ++++ (≧75% = ++++)
2 | 203 (FYSRLLQKF; listed as Homo sapiens) [compound 203] | +++ (50%-75% = +++)
3 | 282 (KFVDSTFYL; listed as Homo sapiens) [compound 282] | ++++ (≧75% = ++++)
4 | 192 (SYALLTYMI; listed as Homo sapiens) [compound 192] | ++++ (≧75% = ++++)
5 | 202 (VYWDSAGAAHF; listed as Homo sapiens) [compound 202] | ++++ (≧75% = ++++)
6 | 270 (NYYEVHKELF; listed as Homo sapiens) [compound 270] | +++ (50%-75% = +++)
7 | 278 (RYISDQLFTNF; listed as Homo sapiens) [compound 278] | ++++ (≧75% = ++++)
8 | 272 (QYLQDAYSF; listed as Homo sapiens) [compound 272] | ++++ (≧75% = ++++)
9 | 181 (LYLDIINLF; listed as Homo sapiens) [compound 181] | ++++ (≧75% = ++++)
10 | 276 (VYGFQWRHF; listed as Homo sapiens) [compound 276] | ++++ (≧75% = ++++)
11 | 219 (EYPLVINTL; listed as Homo sapiens) [compound 219] | +++ (50%-75% = +++)
12 | 216 (QYSSVFKSL; listed as Homo sapiens) [compound 216] | ++++ (≧75% = ++++)
13 | 228 (KYTSWYVAL; listed as Homo sapiens) [compound 228] | ++++ (≧75% = ++++)
14 | 206 (EYQENFLSF; listed as Homo sapiens) [compound 206] | +++ (50%-75% = +++)
15 | 215 (YFDKVVTL; listed as Homo sapiens) [compound 215] | ++ (20%-49% = ++)
16 | 174 (VYVGGGQIIHL; listed as Homo sapiens) [compound 174] | +++ (50%-75% = +++)
17 | 221 (RYSTGLAGNLL; listed as Homo sapiens) [compound 221] | +++ (50%-75% = +++)
18 | 214 (LYLKLWNLI; listed as Homo sapiens) [compound 214] | +++ (50%-75% = +++)
19 | 195 (TYSVSFPMF; listed as Homo sapiens) [compound 195] | ++++ (≧75% = ++++)
20 | 178 (IFIEVFSHF; listed as Homo sapiens) [compound 178] | +++ (50%-75% = +++)
21 | 189 (WYVNGVNYF; listed as Homo sapiens) [compound 189] | ++ (20%-49% = ++)
22 | 271 (LYHDIFSRL; listed as Homo sapiens) [compound 271] | ++++ (≧75% = ++++)
23 | 226 (VYRDETGELF; listed as Homo sapiens) [compound 226] | +++ (50%-75% = +++)
24 | 175 (YYEVHKELF; listed as Homo sapiens) [compound 175] | ++++ (≧75% = ++++)
25 | 183 (VFTSTARAF; listed as Homo sapiens) [compound 183] | +++ (50%-75% = +++)
